Assay results: PubChem BioAssay AID256 (DTP/NCI, 2004)
Values joined by “and” are separate entries in the source; they are usually repeats but may differ in a detail not shown here. Equal entries are not always repeated. Inconclusive results and toxic doses are left out.

Tested on: CD2F1 mice, L1210 leukemia ip, survival T/C
Test: NCI In Vivo Anticancer Drug Screen. Data for tumor model L1210 Leukemia (intraperitoneal) in CD2F1 (CDF1) mice
Conditions: higher = longer survival
Method in brief: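 Tumor-bearing mice (transplanted tumor) were split into treated and vehicle control groups, and the measured endpoint of each treated group was divided by that of its vehicle controls.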

[1] = endpoint: mean survival time, dose: 200.0 mg/kg/injection, schedule: Q04DX003 (ip), vehicle: saline with Tween-80
[2] = endpoint: mean survival time, dose: 400.0 mg/kg/injection, schedule: Q04DX003 (ip), vehicle: saline with Tween-80
[3] = endpoint: mean survival time, dose: 100.0 mg/kg/injection, schedule: Q01DX001 (ip), vehicle: saline with Tween-80
[4] = endpoint: mean survival time, dose: 200.0 mg/kg/injection, schedule: Q01DX001 (ip), vehicle: saline with Tween-80
[5] = endpoint: mean survival time, dose: 400.0 mg/kg/injection, schedule: Q01DX001 (ip), vehicle: saline with Tween-80
[6] = endpoint: mean survival time, dose: 100.0 mg/kg/injection, schedule: Q04DX003 (ip), vehicle: saline
[7] = endpoint: mean survival time, dose: 200.0 mg/kg/injection, schedule: Q04DX003 (ip), vehicle: saline
[8] = endpoint: mean survival time, dose: 200.0 mg/kg/injection, schedule: Q04DX002 (ip), vehicle: saline with Tween-80
[9] = endpoint: mean survival time, dose: 100.0 mg/kg/injection, schedule: Q01DX009 (ip), vehicle: saline with Tween-80
[10] = endpoint: mean survival time, dose: 1.0 mg/kg/injection, schedule: Q01DX009 (ip), vehicle: saline with Tween-80

In the case of Nc1ccc2sccc2c1, the T/C (endpoint: mean survival time, dose: 100.0 mg/kg/injection, schedule: Q04DX003 (ip), vehicle: saline with Tween-80) is reported as 103 % of control, the T/C [1] is reported as 102 % of control and the T/C [2] is reported as 101 % of control.

For C(/C=C/c1ccccc1)=Nc1ccc(CCc2ccc(N=C/C=C/c3ccccc3)cc2)cc1, the T/C [3] was 103 % of control, the T/C [4] was 93 % of control and the T/C [5] was 91 % of control.

With CS(=O)(=O)Nc1ccc(Nc2c3ccccc3nc3cc(Cl)ccc23)cc1 the T/C (endpoint: mean survival time, dose: 50.0 mg/kg/injection, schedule: Q01DX009 (ip), vehicle: saline with Tween-80) was 186 % of control, the T/C [6] was 160 % of control and the T/C (endpoint: mean survival time, dose: 133.0 mg/kg/injection, schedule: Q04DX003 (ip), vehicle: saline with Tween-80) was 114 % of control. The T/C [7] was 225 % of control.

CN(C)[C@@H]1C(=O)C(C(=O)NCN2CCN(C(=N)N=C(N)N)CC2)=C(O)[C@@]2(O)C(=O)C3=C(O)c4c(O)cccc4[C@@](C)(O)[C@H]3C[C@@H]12 was tested, and the T/C (endpoint: mean survival time, dose: 1.25 mg/kg/injection, schedule: Q01DX001 (ip), vehicle: saline) was 111 % of control, the T/C (endpoint: median survival time, dose: 0.31 mg/kg/injection, schedule: Q01DX009 (ip), vehicle: saline) was 107 % of control and the T/C (endpoint: median survival time, dose: 0.62 mg/kg/injection, schedule: Q01DX009 (ip), vehicle: saline) was 110 % of control. The T/C (endpoint: median survival time, dose: 1.25 mg/kg/injection, schedule: Q01DX009 (ip), vehicle: saline) was 103 % of control, the T/C (endpoint: median survival time, dose: 2.0 mg/kg/injection, schedule: Q01DX009 (ip), vehicle: saline) was 109 % of control and the T/C (endpoint: median survival time, dose: 5.0 mg/kg/injection, schedule: Q01DX009 (ip), vehicle: saline) was 87 % of control.

For O=NN(CCCl)C(=O)NCCO, the T/C (endpoint: mean survival time, dose: 2.5 mg/kg/injection, schedule: Q01DX001 (ip), vehicle: water) was 120 % of control, the T/C (endpoint: mean survival time, dose: 3.13 mg/kg/injection, schedule: Q01DX009 (ip), vehicle: water) was 355 % of control and the T/C (endpoint: mean survival time, dose: 5.0 mg/kg/injection, schedule: Q01DX001 (ip), vehicle: water) was 158 % of control. For the same compound, the T/C (endpoint: mean survival time, dose: 6.25 mg/kg/injection, schedule: Q01DX009 (ip), vehicle: water) was 242 % of control, the T/C (endpoint: mean survival time, dose: 10.0 mg/kg/injection, schedule: Q01DX001 (ip), vehicle: water) was 166 % of control and 411 % of control and the T/C (endpoint: mean survival time, dose: 12.5 mg/kg/injection, schedule: Q01DX009 (ip), vehicle: water) was 187 % of control. The T/C (endpoint: mean survival time, dose: 20.0 mg/kg/injection, schedule: Q01DX001 (ip), vehicle: water) was 333 % of control and 491 % of control, the T/C (endpoint: mean survival time, dose: 25.0 mg/kg/injection, schedule: Q01DX009 (ip), vehicle: water) was 101 % of control and the T/C (endpoint: median survival time, dose: 0.75 mg/kg/injection, schedule: Q01DX009 (ip), vehicle: water) was 164 % of control. For the same compound, the T/C (endpoint: median survival time, dose: 0.78 mg/kg/injection, schedule: Q01DX009 (ip), vehicle: water) was 241 % of control, the T/C (endpoint: median survival time, dose: 1.5 mg/kg/injection, schedule: Q01DX009 (ip), vehicle: water) was 223 % of control and the T/C (endpoint: median survival time, dose: 1.56 mg/kg/injection, schedule: Q01DX009 (ip), vehicle: water) was 198 % of control. The T/C (endpoint: median survival time, dose: 1.57 mg/kg/injection, schedule: Q01DX009 (ip), vehicle: water) was 275 % of control, the T/C (endpoint: median survival time, dose: 3.0 mg/kg/injection, schedule: Q01DX009 (ip), vehicle: water) was 352 % of control and the T/C (endpoint: median survival time, dose: 3.12 mg/kg/injection, schedule: Q01DX009 (ip), vehicle: water) was 308 % of control. The T/C (endpoint: median survival time, dose: 3.13 mg/kg/injection, schedule: Q01DX009 (ip), vehicle: water) was 375 % of control, the T/C (endpoint: median survival time, dose: 6.0 mg/kg/injection, schedule: Q01DX009 (ip), vehicle: water) was 268 % of control and the T/C (endpoint: median survival time, dose: 6.25 mg/kg/injection, schedule: Q01DX009 (ip), vehicle: water) was 212 % of control and 262 % of control. For the same compound, the T/C (endpoint: median survival time, dose: 12.0 mg/kg/injection, schedule: Q01DX009 (ip), vehicle: water) was 103 % of control, the T/C (endpoint: median survival time, dose: 12.5 mg/kg/injection, schedule: Q01DX009 (ip), vehicle: water) was 114 % of control and 103 % of control and the T/C (endpoint: median survival time, dose: 25.0 mg/kg/injection, schedule: Q01DX009 (ip), vehicle: water) was 97 % of control.

COc1cc2c(oc(=O)c3cc(C)cc(OC)c32)c2c(C3OC(C)C(O)C(C)(O)C3O)ccc(O)c12 (configuration not stated) was tested, and the T/C (endpoint: median survival time, dose: 3.12 mg/kg/injection, schedule: Q01DX005 (ip), vehicle: DMSO) was 109 % of control and 110 % of control, the T/C (endpoint: median survival time, dose: 6.25 mg/kg/injection, schedule: Q01DX005 (ip), vehicle: DMSO) was 108 % of control and 110 % of control and the T/C (endpoint: median survival time, dose: 12.5 mg/kg/injection, schedule: Q01DX005 (ip), vehicle: DMSO) was 121 % of control and 103 % of control and 109 % of control. The T/C (endpoint: median survival time, dose: 25.0 mg/kg/injection, schedule: Q01DX005 (ip), vehicle: DMSO) was 113 % of control and 118 % of control and 109 % of control, the T/C (endpoint: median survival time, dose: 50.0 mg/kg/injection, schedule: Q01DX005 (ip), vehicle: DMSO) was 116 % of control and 112 % of control and the T/C (endpoint: median survival time, dose: 100.0 mg/kg/injection, schedule: Q01DX005 (ip), vehicle: DMSO) was 121 % of control.

For CC(=O)N/N=C/C(C)(C)C(C)(C)/C=N/NC(C)=O, the T/C (endpoint: mean survival time, dose: 100.0 mg/kg/injection, schedule: Q04DX002 (ip), vehicle: saline with Tween-80) was 103 % of control and the T/C [8] was 122 % of control.

With O=C(/C=C\c1ccc(NCc2ccc(C(=O)O)cc2)cc1)CCl the T/C [9] was 111 % of control, the T/C [1] was 91 % of control and the T/C [2] was 86 % of control.

For COc1cccc(C(=O)O)c1OC, the T/C [9] was 109 % of control, the T/C (endpoint: mean survival time, dose: 200.0 mg/kg/injection, schedule: Q01DX009 (ip), vehicle: saline with Tween-80) was 94 % of control and the T/C (endpoint: mean survival time, dose: 400.0 mg/kg/injection, schedule: Q01DX009 (ip), vehicle: saline with Tween-80) was 102 % of control.

CC(C)NC(C)C was tested, and the T/C [8] was 98 % of control and the T/C (endpoint: mean survival time, dose: 400.0 mg/kg/injection, schedule: Q04DX002 (ip), vehicle: saline with Tween-80) was 98 % of control.

With COC(=O)C(C(=O)c1ccccc1)c1ccccc1 (configuration not stated) the T/C [3] was 94 % of control, the T/C [4] was 97 % of control and the T/C [5] was 90 % of control.

CCCC(CC)(C[NH-])C[NH-].[Cl][Pt+2][Cl] was tested, and the T/C (endpoint: mean survival time, dose: 6.25 mg/kg/injection, schedule: Q04DX003 (ip), vehicle: saline) was 120 % of control and 109 % of control, the T/C (endpoint: mean survival time, dose: 12.5 mg/kg/injection, schedule: Q04DX003 (ip), vehicle: saline) was 121 % of control and 109 % of control and the T/C (endpoint: mean survival time, dose: 25.0 mg/kg/injection, schedule: Q04DX003 (ip), vehicle: saline) was 114 % of control. The T/C [6] was 158 % of control and the T/C [7] was 114 % of control and 105 % of control.

For CCOC(=O)C(C)C(=O)O (configuration not stated), the T/C (endpoint: mean survival time, dose: 50.0 mg/kg/injection, schedule: Q01DX009 (ip), vehicle: saline) was 97 % of control, the T/C (endpoint: mean survival time, dose: 100.0 mg/kg/injection, schedule: Q01DX009 (ip), vehicle: saline) was 98 % of control and the T/C [6] was 98 % of control. The T/C (endpoint: mean survival time, dose: 200.0 mg/kg/injection, schedule: Q01DX009 (ip), vehicle: saline) was 98 % of control and the T/C [7] was 96 % of control.

C=C1CC[C@]2(C)CC[C@]3(C)C4=CC=C5C(=CC(=O)C(O)=C5C)[C@]4(C)CC[C@@]3(C)[C@@H]2C1 was tested, and the T/C (endpoint: mean survival time, dose: 0.12 mg/kg/injection, schedule: Q01DX009 (ip), vehicle: saline with Tween-80) was 103 % of control, the T/C (endpoint: mean survival time, dose: 0.25 mg/kg/injection, schedule: Q01DX009 (ip), vehicle: saline with Tween-80) was 102 % of control and the T/C (endpoint: mean survival time, dose: 0.5 mg/kg/injection, schedule: Q01DX009 (ip), vehicle: saline with Tween-80) was 108 % of control. For the same compound, the T/C [10] was 86 % of control.

With Cc1ccc(-[n+]2nscc2O)cc1 the T/C (endpoint: mean survival time, dose: 75.0 mg/kg/injection, schedule: Q01DX001 (ip), vehicle: saline) was 96 % of control, the T/C (endpoint: mean survival time, dose: 150.0 mg/kg/injection, schedule: Q01DX001 (ip), vehicle: saline) was 97 % of control and the T/C (endpoint: mean survival time, dose: 300.0 mg/kg/injection, schedule: Q01DX001 (ip), vehicle: saline) was 92 % of control.

In the case of C=C.O=C(O)/C=C\C(=O)O.[Mn], the T/C [10] is reported as 95 % of control, the T/C (endpoint: mean survival time, dose: 1.0 mg/kg/injection, schedule: Q04DX003 (ip), vehicle: saline with Tween-80) is reported as 97 % of control and the T/C (endpoint: mean survival time, dose: 2.0 mg/kg/injection, schedule: Q01DX009 (ip), vehicle: saline with Tween-80) is reported as 95 % of control. The T/C (endpoint: mean survival time, dose: 2.0 mg/kg/injection, schedule: Q04DX003 (ip), vehicle: saline with Tween-80) was 95 % of control and the T/C (endpoint: mean survival time, dose: 4.0 mg/kg/injection, schedule: Q04DX003 (ip), vehicle: saline with Tween-80) was 91 % of control.

In the case of O=S(=O)(Nc1c2ccccc2c(NS(=O)(=O)c2ccccc2)c2ccccc12)c1ccccc1, the T/C (endpoint: mean survival time, dose: 25.0 mg/kg/injection, schedule: Q01DX001 (ip), vehicle: saline sonified) is reported as 96 % of control, the T/C (endpoint: mean survival time, dose: 50.0 mg/kg/injection, schedule: Q01DX001 (ip), vehicle: saline sonified) is reported as 90 % of control and the T/C (endpoint: mean survival time, dose: 100.0 mg/kg/injection, schedule: Q01DX001 (ip), vehicle: saline sonified) is reported as 95 % of control.

In the case of CN(C)C(=O)c1cc2ccccc2n1C, the T/C [3] is reported as 97 % of control, the T/C [4] is reported as 98 % of control and the T/C [5] is reported as 94 % of control.

In the case of CCOc1c(NCCO)c2cc(Cl)ccc2oc1=O, the T/C [3] is reported as 95 % of control, the T/C [4] is reported as 87 % of control and the T/C [5] is reported as 97 % of control.
